Measurements: patent US7396837B2, “Antitumoral analogs of lamellarins” (Pharma Mar, S.A.U., priority 2002, dated 2008)
“Also recorded” adds a separate entry of the source.

Columns and labels:
[1] = test system: DU-145; assay: SRB colorimetric cell growth inhibition assay, DU-145; format: cell-based; details: Homo sapiens, DU-145, DU-145; for GI50: GI=growth inhibition, read-out: GI50 DU-145; for CC50: cell killing (cytotoxic effect), read-out: LC50 DU-145; for IC (TGI): total growth inhibition (cytostatic effect), read-out: TGI DU-145
Method in brief: (§1)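 Human tumour cells were exposed continuously to the test sample, and growth and viability were quantified by sulforhodamine B staining. Means ± SD came from triplicate wells, and GI, TGI (cytostatic) and LC (cell killing) parameters were derived.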

[2] = test system: LNCaP; assay: SRB colorimetric cell growth inhibition assay, LNCaP; format: cell-based; details: Homo sapiens, LNCaP, LN-caP; for GI50: GI=growth inhibition, read-out: GI50 LN-caP; for CC50: cell killing (cytotoxic effect), read-out: LC50 LN-caP; for IC (TGI): total growth inhibition (cytostatic effect), read-out: TGI LN-caP
Method in brief: as §1

[3] = test system: A-549; assay: SRB colorimetric cell growth inhibition assay, A-549; format: cell-based; details: Homo sapiens, A549, A-549; for GI50: GI=growth inhibition, read-out: GI50 A-549; for CC50: LC=cell killing (cytotoxic effect), read-out: LC50 A-549; for IC (TGI): TGI=total growth inhibition (cytostatic effect), read-out: TGI A-549
Method in brief: as §1

[4] = test system: IGROV; assay: SRB colorimetric cell growth inhibition assay, IGROV; format: cell-based; details: Homo sapiens, IGROV; for GI50: GI=growth inhibition, read-out: GI50 IGROV; for CC50: cell killing (cytotoxic effect), read-out: LC50 IGROV; for IC (TGI): total growth inhibition (cytostatic effect), read-out: TGI IGROV
Method in brief: as §1

[5] = test system: IGROV-ET; assay: SRB colorimetric cell growth inhibition assay, IGROV-ET (ET-743 resistant); format: cell-based; details: Homo sapiens, IGROV-ET; for GI50: GI=growth inhibition, read-out: GI50 IGROV-ET; for CC50: cell killing (cytotoxic effect), read-out: LC50 IGROV-ET; for IC (TGI): total growth inhibition (cytostatic effect), read-out: TGI IGROV-ET
Method in brief: as §1

[6] = test system: LoVo-Dox; assay: SRB colorimetric cell growth inhibition assay, LoVo-Dox (MDR); format: cell-based; details: Homo sapiens, LOVO-DOX; for GI50: GI=growth inhibition, read-out: GI50 LOVO-DOX; for CC50: LC=cell killing (cytotoxic effect), read-out: LC50 LOVO-DOX; for IC (TGI): TGI=total growth inhibition (cytostatic effect), read-out: TGI LOVO-DOX
Method in brief: as §1

[7] = test system: HT-29; assay: SRB colorimetric cell growth inhibition assay, HT-29; format: cell-based; details: Homo sapiens, HT-29, HT-29; for GI50: GI=growth inhibition, read-out: GI50 HT-29; for CC50: LC=cell killing (cytotoxic effect), read-out: LC50 HT-29; for IC (TGI): TGI=total growth inhibition (cytostatic effect), read-out: TGI HT-29
Method in brief: as §1

[8] = test system: LoVo; assay: SRB colorimetric cell growth inhibition assay, LoVo; format: cell-based; details: Homo sapiens, LoVo; for GI50: GI=growth inhibition, read-out: GI50 LOVO; for CC50: LC=cell killing (cytotoxic effect), read-out: LC50 LOVO; for IC (TGI): TGI=total growth inhibition (cytostatic effect), read-out: TGI LOVO
Method in brief: as §1

[9] = test system: K-562; assay: SRB colorimetric cell growth inhibition assay, K-562; format: cell-based; details: Homo sapiens, K562, K-562; for GI50: GI=growth inhibition, read-out: GI50 K-562; for CC50: LC=cell killing (cytotoxic effect), read-out: LC50 K-562; for IC (TGI): TGI=total growth inhibition (cytostatic effect), read-out: TGI K-562
Method in brief: as §1

[10] = molecular target: T1, human topoisomerase I (Homo sapiens, UniProt P11387); assay: Topoisomerase I DNA relaxation assay (supercoiled plasmid DNA); format: biochemical; details: supercoiled plasmid DNA, each compound tested at 1 μM, agarose gel with ethidium bromide
T1 sequence (P11387 1-765): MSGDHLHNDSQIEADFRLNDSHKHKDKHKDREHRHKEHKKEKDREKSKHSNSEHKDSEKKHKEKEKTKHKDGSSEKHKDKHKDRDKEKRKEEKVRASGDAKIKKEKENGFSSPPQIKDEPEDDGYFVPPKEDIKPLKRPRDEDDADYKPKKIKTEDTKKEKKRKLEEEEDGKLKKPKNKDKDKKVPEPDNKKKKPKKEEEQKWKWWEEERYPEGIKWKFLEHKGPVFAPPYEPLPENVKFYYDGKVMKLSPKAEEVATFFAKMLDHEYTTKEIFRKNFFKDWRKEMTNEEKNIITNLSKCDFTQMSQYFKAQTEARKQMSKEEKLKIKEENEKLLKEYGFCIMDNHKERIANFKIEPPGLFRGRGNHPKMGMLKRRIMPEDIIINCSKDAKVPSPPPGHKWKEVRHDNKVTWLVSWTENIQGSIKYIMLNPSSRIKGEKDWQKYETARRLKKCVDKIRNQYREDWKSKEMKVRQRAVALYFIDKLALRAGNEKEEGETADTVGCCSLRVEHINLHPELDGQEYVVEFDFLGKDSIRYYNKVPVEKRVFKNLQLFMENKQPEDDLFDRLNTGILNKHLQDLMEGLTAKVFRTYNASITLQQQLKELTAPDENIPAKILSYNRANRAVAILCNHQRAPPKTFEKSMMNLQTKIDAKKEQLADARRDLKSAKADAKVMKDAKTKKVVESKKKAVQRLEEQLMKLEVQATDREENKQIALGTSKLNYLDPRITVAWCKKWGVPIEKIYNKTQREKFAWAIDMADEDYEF
Method in brief: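 Supercoiled plasmid DNA was relaxed by human topoisomerase I with or without test compound at 1 μM. Products were resolved by agarose gel electrophoresis with ethidium bromide staining.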

[11] = test system: SK-BR-3; assay: SRB colorimetric cell growth inhibition assay, SK-BR-3; format: cell-based; details: Homo sapiens, SK-BR-3, SK-BR-3; for GI50: GI=growth inhibition, read-out: GI50 SK-BR-3; for CC50: cell killing (cytotoxic effect), read-out: LC50 SK-BR-3; for IC (TGI): total growth inhibition (cytostatic effect), read-out: TGI SK-BR-3
Method in brief: as §1

[12] = test system: SK-MEL-28; assay: SRB colorimetric cell growth inhibition assay, SK-MEL-28; format: cell-based; details: Homo sapiens, SK-MEL-28, MEL-28; for GI50: GI=growth inhibition, read-out: GI50 MEL-28; for CC50: cell killing (cytotoxic effect), read-out: LC50 MEL-28; for IC (TGI): total growth inhibition (cytostatic effect), read-out: TGI MEL-28
Method in brief: as §1

[13] = test system: H-MEC-1; assay: SRB colorimetric cell growth inhibition assay, H-MEC-1; format: cell-based; details: Homo sapiens, HMEC-1, H-MEC-1; for GI50: GI=growth inhibition, read-out: GI50 H-MEC-1; for IC (TGI): total growth inhibition (cytostatic effect), read-out: TGI H-MEC-1
Method in brief: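 Sulforhodamine B colorimetric assay of cell growth and viability, mean ± SD of triplicate wells. Parameters derived: GI (growth inhibition), TGI (total growth inhibition, cytostatic) and LC (cell killing, cytotoxic).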

[14] = test system: PANC-1; assay: SRB colorimetric cell growth inhibition assay, PANC-1; format: cell-based; details: Homo sapiens, PANC-1, PANC-1; for GI50: GI=growth inhibition, read-out: GI50 PANC-1; for CC50: LC=cell killing (cytotoxic effect), read-out: LC50 PANC-1; for IC (TGI): TGI=total growth inhibition (cytostatic effect), read-out: TGI PANC-1
Method in brief: as §1

| SMILES | GI50 [1] [nM] | CC50 [1] [nM] | IC (TGI) [1] [nM] | GI50 [2] [nM] | CC50 [2] [nM] | IC (TGI) [2] [nM] | GI50 [3] [nM] | CC50 [3] [nM] | IC (TGI) [3] [nM] | GI50 [4] [nM] | CC50 [4] [nM] | IC (TGI) [4] [nM] | GI50 [5] [nM] | CC50 [5] [nM] | IC (TGI) [5] [nM] | GI50 [6] [nM] | CC50 [6] [nM] | IC (TGI) [6] [nM] | GI50 [7] [nM] | CC50 [7] [nM] | other results |
| --- | --- | --- | --- | --- | --- | --- | --- | --- | --- | --- | --- | --- | --- | --- | --- | --- | --- | --- | --- | --- | --- |
| COc1cc(-c2c3c4cc(OC)c(OC(=O)[C@@H]5CCCN5)cc4oc(=O)c3n3ccc4cc(OC(=O)[C@@H]5CCCN5)c(OC)cc4c23)ccc1OC(=O)[C@@H]1CCCN1 [Compound 33] | 18.6 | 367 | 46 | 39.7 | 423 | 155 | 37.9 | 883 | 154 | 49.6 | 4760 | 500 | 78.1 | 8830 | 589 | 198 | 4330 | 558 | 1340 | 8740 | IC (TGI) [7]: 3420 nM; GI50 [8]: 153 nM; CC50 [8]: 726 nM; IC (TGI) [8]: 333 nM; GI50 [9]: 5.96 nM; CC50 [9]: 4030 nM; IC (TGI) [9]: 918 nM; stimulation of DNA cleavage by topoisomerase I / inhibition of topoisomerase I (nicked DNA band) in DNA relaxation assay [10]: marked inhibition of topoisomerase I; GI50 [11]: 30.5 nM; CC50 [11]: 1440 nM; IC (TGI) [11]: 168 nM; GI50 [12]: 41.1 nM; CC50 [12]: 2480 nM; IC (TGI) [12]: 198 nM; GI50 [13]: 9.8 nM; IC (TGI) [13]: 21.4 nM; GI50 [14]: 89.2 nM; CC50 [14]: 8440 nM; IC (TGI) [14]: 1060 nM |
| COc1cc(-c2c3c4cc(OC)c(OC(=O)[C@@H](N)C(C)C)cc4oc(=O)c3n3ccc4cc(OC(=O)[C@@H](N)C(C)C)c(OC)cc4c23)ccc1OC(=O)[C@@H](N)C(C)C [Compound 36] | 10.8 | 668 | 38.3 | 42.8 | 424 | 156 | 32.8 | 1690 | 154 | 46.9 | 7950 | 409 | 76.5 | 8780 | 540 | 145 | 8780 | 525 | 1510 | 8780 | IC (TGI) [7]: 4080 nM; GI50 [8]: 158 nM; CC50 [8]: 652 nM; IC (TGI) [8]: 321 nM; GI50 [9]: 9.48 nM; CC50 [9]: 5700 nM; IC (TGI) [9]: 188 nM; stimulation of DNA cleavage by topoisomerase I / inhibition of topoisomerase I (nicked DNA band) in DNA relaxation assay [10]: marked inhibition of topoisomerase I; also recorded: stimulated DNA cleavage by the enzyme; GI50 [11]: 39.6 nM; CC50 [11]: 2940 nM; IC (TGI) [11]: 221 nM; GI50 [12]: 31.9 nM; CC50 [12]: 2700 nM; IC (TGI) [12]: 181 nM; GI50 [13]: 2.65 nM; IC (TGI) [13]: 8.6 nM; GI50 [14]: 169 nM; CC50 [14]: 8780 nM; IC (TGI) [14]: 1130 nM |
